Results on 23 molecules are retold here after US11198687B2, “Heteroaryl allosteric modulators of nicotinic acetylcholine receptors” (Merck Sharp & Dohme Corp., priority 2017, dated 2021).

The target in this experiment is human α7 nAChR (Homo sapiens, UniProt P36544). Kind of experiment: Automated patch-clamp electrophysiology functional assay (Assay A). To be noted: IonFlux HT whole-cell population patch, HEK cell line stably expressing human RIC-3 and human α7, 40 μM acetylcholine. It counts as cell-based. The procedure: The α7 nAChR positive allosteric modulator (PAM) activity of the present compounds may be tested using assays known in the art. […] The assay was performed using the IonFlux HT in a whole-cell, population patch configuration. See Golden et al. Assay Drug Dev. Technol. (2011) 9:608-619. The compounds were assessed for their ability to modulate the function of the human α7 nAChR stably expressed in a HEK cell line both in the presence, and in the absence of the natural α7 agonist acetylcholine. By performing a series of such measurements at different concentrations, the effective concentration of the α7 nAChR PAMs (EC50) was determined. See Spencer et al. Assay Drug Dev. Technol. (2012) 10:313-324.
Sequence of human α7 nAChR (P36544 23-502): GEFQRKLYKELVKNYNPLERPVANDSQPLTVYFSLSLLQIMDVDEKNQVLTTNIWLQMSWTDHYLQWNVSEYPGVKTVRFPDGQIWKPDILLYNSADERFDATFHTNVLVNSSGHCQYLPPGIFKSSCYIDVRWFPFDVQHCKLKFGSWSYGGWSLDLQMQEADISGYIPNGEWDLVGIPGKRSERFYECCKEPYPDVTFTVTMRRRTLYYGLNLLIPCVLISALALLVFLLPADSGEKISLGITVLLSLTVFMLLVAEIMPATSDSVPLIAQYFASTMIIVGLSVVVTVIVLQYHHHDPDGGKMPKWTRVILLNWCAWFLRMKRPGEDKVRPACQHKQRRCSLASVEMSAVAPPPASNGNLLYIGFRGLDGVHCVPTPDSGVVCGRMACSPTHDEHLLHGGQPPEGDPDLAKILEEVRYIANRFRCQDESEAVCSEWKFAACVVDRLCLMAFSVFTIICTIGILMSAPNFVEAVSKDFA
Direct activation of α7 (agonism), and potentiation of acetylcholine-evoked α7 currents was determined as follows:
Automated Patch-Clamp Electrophysiology Functional Assay (Assay A)
Automated patch-clamp electrophysiology was performed using the IonFlux HT (Fluxion Biosciences Inc., San Francisco, Calif.) in the whole-cell, population patch configuration. Test compounds were assessed for their ability to modulate the function of the α7 nicotinic acetylcholine receptor both in the presence, and in the absence of the natural α7 agonist acetylcholine. A HEK cell line stably expressing both human RIC-3 and human α7 (PrecisION hnAChR α7/RIC-3, Eurofins Pharma, St. Charles, Mo.) was cultured in 175 cm^2 triple-layer tissue culture flasks to no more than 90% confluency in DMEM/F-12 growth media supplemented with 10% heat-inactivated fetal bovine serum, 1% non-essential amino acids, 0.625 μg/mL Puromycin, and 400 μg/mL Geneticin. Immediately prior to assay, cells were detached by first aspirating growth media, rinsing with Dulbecco's phosphate buffered saline, and then adding 10 mL of Accutase (Innovative Cell Technologies, San Diego, Calif.) to the flask and then incubating at 37° C. for 5 minutes. Detached cells were then recovered by the addition of 40 mL of CHO-serum-free media supplemented with 25 mM HEPES, and rocked gently in a 50 mL conical tube for 20 minutes prior to patch-clamp assay. […] The cell suspension was added to the cell inlet wells on an IonFlux HT population patch plate which had previously been rinsed and primed with deionized H2O. Test compounds were serially diluted in DMSO and then resuspended to the final test concentration in external recording solution, with, or without 40 μM acetylcholine added to the external recording solution; test compounds were then transferred to the lonFlux HT population patch plate. Internal recording solution (110 mM TrisPO4, 28 mM TrisBase, 0.1 mM CaCl2, 2 mM MgCl2, 11 mM EGTA, 4 mM MgATP) was added to the internal recording solution inlet wells on the IonFlux HT patch plate previously loaded with cells and test compounds, and the plate loaded into the IonFlux HT instrument. A protocol was executed on the IonFlux HT to trap the cells, break into the cells, and establish the whole-cell recording configuration; cells were voltage-clamped at a holding potential of −60 mV for the duration of the experiment, all experiments were conducted at room temperature, and the IonFlux HT injection pressure was 8 psi for solution applications. Upon establishing the whole-cell configuration, external recording solution was perfused into the recording chambers for 120 seconds and then 40 μM acetylcholine was applied for 1 second and immediately washed off with external recording solution for 60 seconds. The 40 μM acetylcholine-evoked α7 current served as the current response to which subsequent test compound effects, in the presence, or in the absence of 40 μM acetylcholine would be quantified relative to. Next, test compounds were evaluated at multiple concentrations for their ability to induce, or modulate α7 current responses; three concentrations of test compound were evaluated in ascending dose fashion per recording.

Where two headings read alike, the source gives them in different places.

With “6-[trans-3-(1,3-Benzoxazol-2-yl)-2,2-dimethylcyclopropyl]pyridine-3-sulfonamide [Example G1]”, the EC50 reads like this: (read-out: α7 nAChR EC50) 900 nM; (read-out: α7 nAChR Potency) 500 to 5000 nM. `CC1(C)[C@@H](c2ccc(S(N)(=O)=O)nc2)[C@@H]1c1noc(-c2c(F)ccc(F)c2F)n1` (racemic) [Example C1, 5-{trans-2,2-Dimethyl-3-[5-(2,3,6-trifluorophenyl)-1,2,4-oxadiazol-3-yl]cyclopropyl}pyridine-2-sulfonamide]: the EC50 reads like this: (read-out: α7 nAChR EC50) 580 nM; (read-out: α7 nAChR Potency) 500 to 5000 nM. On to `CC1(C)[C@@H](c2ccc(S(N)(=O)=O)nc2)[C@@H]1c1noc(C2CCCC2)n1` (racemic) [Example C2, 5-[trans-3-(5-Cyclopentyl-1,2,4-oxadiazol-3-yl)-2,2-dimethylcyclopropyl]pyridine-2-sulfonamide], for which the EC50 is, setting by setting: (read-out: α7 nAChR EC50) 920 nM; (read-out: α7 nAChR Potency) 500 to 5000 nM. With `CC1(C)C(c2ccc(S(N)(=O)=O)nc2)C1c1cc(-c2cccc(F)c2)no1` (racemic) [Example C3, 5-{trans-3-[3-(3-Fluorophenyl)isoxazol-5-yl]-2,2-dimethylcycpropyl}pyridine-2-sulfonamide], the EC50 is 430 nM (read-out: α7 nAChR EC50) and 100 to 500 nM (read-out: α7 nAChR Potency).

`CC1(C)C(c2ccc(S(N)(=O)=O)nc2)C1c1nc2ccccc2o1` (racemic) [Example C4, 5-[trans-3-(1,3-Benzoxazol-2-yl)-2,2-dimethylcyclopropyl]pyridine-2-sulfonamide]: the EC50 (read-out: α7 nAChR EC50) was found to be 5100 nM and the EC50 (read-out: α7 nAChR Potency) was 5000 to 50000 nM.

With `NS(=O)(=O)c1ccc(C2CC2c2nc(-c3ccccc3)no2)cn1` (racemic) [Example C5, 5-[trans-2-(3-Phenyl-1,2,4-oxadiazol-5-yl)cyclopropyl]pyridine-2-sulfonamide], the EC50 reads like this: (read-out: α7 nAChR EC50) 1100 nM; (read-out: α7 nAChR Potency) 500 to 5000 nM. In the case of `CC1(C)[C@@H](c2ccc(S(N)(=O)=O)nc2)[C@@H]1c1nc(-c2ccccc2)no1` (racemic) [Example C6, 5-[trans-2,2-Dimethyl-3-(3-phenyl-1,2,4-oxadiazol-5-yl)cyclopropyl]pyridine-2-sulfonamide], for the setting “read-out: α7 nAChR Potency”, the EC50 fell in the range of 500 to 5000 nM. As for `NS(=O)(=O)c1ccc([C@@H]2C[C@H]2c2nc(-c3cccc(F)c3)no2)cn1` (racemic) [Example C8, 5-{trans-2-[3-(3-Fluorophenyl)-1,2,4-oxadiazol-5-yl]cyclopropyl}pyridine-2-sulfonamide], the EC50 (read-out: α7 nAChR EC50) is 390 nM and the EC50 (read-out: α7 nAChR Potency) was 100 to 500 nM. For the molecule `NS(=O)(=O)c1ccc([C@@H]2C[C@H]2c2nc(C3CCCC3)no2)cn1` (racemic) [Example C9, 5-[trans-2-(3-Cyclopentyl-1,2,4-oxadiazol-5-yl)cyclopropyl]pyridine-2-sulfonamide], the EC50 (read-out: α7 nAChR Potency) was in the range of 500 to 5000 nM. For `CC1(C)[C@@H](c2ccc(S(N)(=O)=O)nc2)[C@@H]1c1noc(C2CCCCC2)n1` (racemic) [Example C10, 5-[trans-3-(5-Cyclohexyl-1,2,4-oxadiazol-3-yl)-2,2-dimethylcyclopropyl]pyridine-2-sulfonamide], the EC50 is, setting by setting: (read-out: α7 nAChR EC50) 2100 nM; (read-out: α7 nAChR Potency) 500 to 5000 nM. Consider `CC1(C)[C@@H](c2ccc(S(N)(=O)=O)nc2)[C@@H]1c1noc(C2(C(F)(F)F)CC2)n1` (racemic) [Example C11, 5-(trans-2,2-Dimethyl-3-{5-[1-(trifluoromethyl)cyclopropyl]-1,2,4-oxadiazol-3-yl}cyclopropyl)pyridine-2-sulfonamide], for which the EC50 was 1500 nM (read-out: α7 nAChR EC50) and 500 to 5000 nM (read-out: α7 nAChR Potency).

`CC1(C)[C@@H](c2ccc(S(N)(=O)=O)nc2)[C@@H]1c1noc(-c2c(F)cccc2F)n1` (racemic) [Example C12, 5-{trans-3-[5-(2,6-Difluorophenyl)-1,2,4-oxadiazol-3-yl]-2,2-dimethylcyclopropyl}pyridine-2-sulfonamide]: the EC50 runs as follows: (read-out: α7 nAChR EC50) 1200 nM; (read-out: α7 nAChR Potency) 500 to 5000 nM. The like results for `CC1(C)[C@@H](c2nc3ccccc3o2)[C@@H]1c1ncc(S(N)(=O)=O)s1` (racemic) [Example D1, 2-[trans-3-(1,3-Benzoxazol-2-yl)-2,2-dimethylcyclopropyl]-1,3-thiazole-5-sulfonamide] were, in that order, 2000 nM and 500 to 5000 nM. In the same order, the values of `CC1(C)[C@@H](c2nc(C3CCC3)no2)[C@@H]1c1ncc(S(N)(=O)=O)s1` (racemic) [Example D2, 2-[trans-3-(3-Cyclobutyl-1,2,4-oxadiazol-5-yl)-2,2-dimethylcyclopropyl]-1,3-thiazole-5-sulfonamide] are 1200 nM and 500 to 5000 nM. In the same order, the values of `CC1(C)[C@@H](c2nc(-c3cncc(F)c3)no2)[C@@H]1c1ncc(S(N)(=O)=O)s1` (racemic) [Example D3, 2-{trans-3-[3-(5-Fluoropyridin-3-yl)-1,2,4-oxadiazol-5-yl]-2,2-dimethylcyclopropyl}-1,3-thiazole-5-sulfonamide] are 1600 nM and 500 to 5000 nM. In the case of `CC1(C)[C@@H](c2nc(-c3ccccc3)no2)[C@@H]1c1ncc(S(N)(=O)=O)s1` (racemic) [Example D4, 2-[trans-2,2-Dimethyl-3-(3-phenyl-1,2,4-oxadiazol-5-yl)cyclopropyl]-1,3-thiazole-5-sulfonamide], the EC50 was 360 nM (read-out: α7 nAChR EC50) and 100 to 500 nM (read-out: α7 nAChR Potency). The like results for `CC(C)c1noc([C@H]2[C@H](c3ncc(S(N)(=O)=O)s3)C2(C)C)n1` (racemic) [Example D5, 2-{trans-2,2-Dimethyl-3-[3-(propan-2-yl)-1,2,4-oxadiazol-5-yl]cyclopropyl}-1,3-thiazole-5-sulfonamide] were, in that order, 4200 nM and 500 to 5000 nM. Turning to `CC1(C)[C@@H](c2nc(C3CC(F)(F)C3)no2)[C@@H]1c1ncc(S(N)(=O)=O)s1` (racemic) [Example D6, 2-{trans-3-[3-(3,3-Difluorocyclobutyl)-1,2,4-oxadiazol-5-yl]-2,2-dimethylcyclopropyl}-1,3-thiazole-5-sulfonamide], the EC50 (read-out: α7 nAChR Potency) lay within 5000 to 50000 nM.

For the molecule `COc1ccc(Cl)cc1-c1noc([C@H]2[C@H](c3ncc(S(N)(=O)=O)s3)C2(C)C)n1` (racemic) [Example D7, 2-{trans-3-[3-(5-Chloro-2-methoxyphenyl)-1,2,4-oxadiazol-5-yl]-2,2-dimethylcyclopropyl}-1,3-thiazole-5-sulfonamide], the EC50 is 1200 nM (read-out: α7 nAChR EC50) and 500 to 5000 nM (read-out: α7 nAChR Potency). The like results for `NS(=O)(=O)c1cnc([C@@H]2C[C@H]2c2nc(-c3ccccc3)no2)s1` (racemic) [Example D8, 2-[trans-2-(3-Phenyl-1,2,4-oxadiazol-5-yl)cyclopropyl]-1,3-thiazole-5-sulfonamide] were, in that order, 1000 nM and 500 to 5000 nM. The like results for `CC1(C)[C@@H](c2ccc(S(N)(=O)=O)cn2)[C@@H]1c1nc(-c2ccccc2)no1` (racemic) [Example G2, 6-[trans-2,2-Dimethyl-3-(3-phenyl-1,2,4-oxadiazol-5-yl)cyclopropyl]pyridine-3-sulfonamide] were, in that order, 970 nM and 500 to 5000 nM. Regarding `CC(C)c1noc([C@H]2[C@H](c3ccc(S(N)(=O)=O)cn3)C2(C)C)n1` (racemic) [Example G3, 6-{trans-2,2-Dimethyl-3-[3-(propan-2-yl)-1,2,4-oxadiazol-5-yl]cyclopropyl}pyridine-3-sulfonamide], the EC50 (read-out: α7 nAChR Potency) was in the range of 500 to 5000 nM. As to `CC1(C)[C@@H](c2ccc(S(N)(=O)=O)cn2)[C@@H]1c1nc(C2CCC2)no1` (racemic) [Example G4, 6-[trans-3-(3-Cyclobutyl-1,2,4-oxadiazol-5-yl)-2,2-dimethylcyclopropyl]pyridine-3-sulfonamide], the EC50 (read-out: α7 nAChR Potency) is 500 to 5000 nM.
